According to US4902791A, “Nitrosourea derivatives, process for their preparation and medicaments containing them” (Sanofi S.A., priority 1983, dated 1990):

Experiments:
[1] = toxicological study, lethal doses (Table IA); conditions: mouse, in vivo
Description: The results relating to toxicology are brought together in Table IA below:

L1210 U.S.A. strain = assay: antitumor activity on leukemia L1210 U.S.A., compounds of formula IA, I.P.; format: in vivo, mouse
Description: On the day of the graft (by convention day 0=DO) an inoculum of 1×10^5 tumor cells in a volume of 0.2 ml is administered to each mouse by the intraperitoneal route (I.P.).
This inoculum is prepared by diluting ascites fluid taken from the peritoneum of a donor female mouse in NCTC 109 medium (Eurobio Laboratories Paris, France), counting of the cells in a MALASSEZ cell under a microscope and adjustment of the concentration to 5×10^5cells per ml.
After the tumor graft has been made, the mice are distributed at random in cages of 5 animals. Subsequently, these cages containing 5 mice are themselves distributed at random into a control group (control) and groups treated with the products of the invention.
(§1) The doses of the products of the invention used in the different experiments are expressed in milligrams per kilogram of body weight.
(§2) The products to be injected were dissolved in isotonic sodium chloride solution.
Two protocols for treatment were used in the different experiments:
(§3) or 3 I.P. injections on D1, D5, D9.
(§4) In each experiment the animals of the control group received 1 or more injections, depending on the experimental protocol used, by the same route (I.P. or I.V.) of the same volume (0.2 ml/20 g) of the vehicle not containing the active principle (isotonic sodium chloride solution).
(§5) the number and percentage of the total of the mice surviving to D60,
(§6) the T/C×100 for treated groups.
(§7) T representing the mean survival time of the mice in the treated group
(§8) C representing the mean survival time of the mice in the control group (control).

colon carcinoma C38 [2] = assay: activity on colon carcinoma C38 implanted subcutaneously, I.P. days 2 and 9; format: in vivo, mouse
Description: A tumor fragment is implanted on day 0 in female B6 D2 F1 mice (19-22 g). The treatment with all of the products is administered by the I.P. route on days 2 and 9 (which is a delayed treatment). The weight of the tumors is calculated on day 20.

melanoma B16 [3] = assay: activity toward melanoma B16 implanted subcutaneously, I.V. route; format: in vivo, mouse
Description: The activity of the substances of the invention was also tested by administering the said substances of the invention by the I.V. route. 0.5 ml of an homogenate of the tumor (1 g/10 ml) is administered to B6C3F1 female mice by the subcutaneous (S.C. route) on day 0. The products of the invention and the substances used for comparison are administered on days 3, 7 and 11 in isotonic solution.
In Table IIA below the results are presented relating to the activity of the substance CI. 1675 administered by the I.V. route on the growth of the melanoma B16 implanted subcutaneously, in comparison with carmustine BCNU marketed under the name of BiCNU®.
In Table IIA below and in the subsequent tables, T represents the mean weight (or median) of the tumors in the treated mice, C represents the mean weight (or median) of the tumors in the control, untreated mice and the ratio T/C% corresponds to T/C×100.

colon carcinoma C38 [4] = assay: colon carcinoma C38, comparison of I.V. and I.P. routes, treatment days 8, 12, 16; format: in vivo, mouse; set-up: key to Median wt. of the tumor D20 / Median wt. of the tumor D27: median tumor weight in mg
Description: With a view to verifying the antitumor activity of the product of the invention CI.1671 when it is administered by the I.V. route, another experiment was performed in which this product was administered by the I.P. route and the I.V. route for the purposes of comparison.
This experiment is carried out under particularly difficult conditions, the first day of the treatment corresponding to the eighth day after the implantation of the carcinoma C38, whereas normally the treatment starts on the day of implantation of the tumor (D0) or 1 day after (D1) the implantation of the tumor.
The median weight of the tumors on the first day of treatment (day 8) is about 12 mg (tumors varying from 8 to 40 mg). The animals are treated on days 8, 12 and 16 depending on the different routes indicated. […]

melanoma B16 [5] = assay: antitumor activity on melanoma B16, compounds of formula IA, I.P.; format: in vivo, mouse; conditions: B6 D2 F1, I.P. D1, D5, D9, 3×10 mg/kg
Description: The experiments were always carried out on SPF female mice B6 D2 F1/JIco (first generation hybrids between the lines C5BL/6 and DBA/2).
On the day of the graft (Day 0) an inoculum of 2×10^6 tumor cells in a volume of 0.5 ml is administered to each mouse by the intraperitoneal route (I.P.). This inoculum is prepared from a sub-cutaneous tumor excised from a donor female mouse. After excision the tumor is fragmented by means of a pair of scissors in the NCTC 109 medium. After filtration through sterile gauze in order to remove large cellular fragments, the homogeneous cell suspension obtained is counted by means of a MALASSEZ cell and diluted to the desired concentration (4×10^6 tumor cells per ml) by dilution with the NCTC 109 medium.
This was performed in the manner described previously for the leukemia L1210.
as §1, §2, §3, §4, §5, §6, §7, §8

[6] = B6 D2 F1, I.P. D1, D5, D9, 3×1.25 mg/kg
[7] = B6 D2 F1, I.P. D1, D5, D9, 3×5 mg/kg
[8] = I.P., 10 mg/kg/inj. days 2 and 9
[9] = I.P., 20 mg/kg/inj. days 2 and 9
[10] = I.P., 30 mg/kg/inj. days 2 and 9

SMILES: CO[C@@H]1O[C@H](COC(=O)c2ccccc2)C[C@H](NC(=O)N(CCCl)N=O)[C@H]1O [CI. 1674, methyl 3-[3-(2-chloroethyl)-3 nitrosoureido] 6-benzoyl 3,4-dideoxy-β-D-xylo-hexopyranoside]
- LD0 [1]: ≥ 40 mg/kg
- Number of survivors at D60 (L1210 U.S.A. strain; [6]): 0/10
- T/C (L1210 U.S.A. strain; [6]): 111
- Number of survivors at D60 (L1210 U.S.A. strain; [7]): 0/10
- T/C (L1210 U.S.A. strain; [7]): 130

SMILES: CO[C@@H]1O[C@H](CO)C[C@H](NC(=O)N(CCCl)N=O)[C@H]1O [CI. 1675, methyl 3-[3-(2-chloroethyl) 3-nitrosoureido] 3,4-dideoxy-β-D-xylo-hexopyranoside]
- efficacy against the colon carcinoma C38 (colon carcinoma C38 [2]; I.P. route, delayed treatment): considerable efficacy
- Number of mice without tumor/total (colon carcinoma C38 [2]; [8]): 1/10
- T/C (colon carcinoma C38 [2]; [8]): 67%
- Weight of the tumor on day 20 (colon carcinoma C38 [2]; [8]): 272 mg
- Number of mice without tumor/total (colon carcinoma C38 [2]; [9]): 7/9
- T/C (colon carcinoma C38 [2]; [9]): 0%
- Weight of the tumor on day 20 (colon carcinoma C38 [2]; [9]): 0 mg
- Number of mice without tumor/total (colon carcinoma C38 [2]; [10]): 7/7
- T/C (colon carcinoma C38 [2]; [10]): 0%
- Weight of the tumor on day 20 (colon carcinoma C38 [2]; [10]): 0 mg
- dead mice (remarks) (colon carcinoma C38 [2]; [10]): 5
- Median weight of the tumor on day 3 (melanoma B16 [3]; 10 mg/kg/inj. days 3, 7, 11): 32,0 mg
- Median weight of the tumor on day 30 (melanoma B16 [3]; 10 mg/kg/inj. days 3, 7, 11): 2 025 mg
- T/C on day 30 (tumor weight) (melanoma B16 [3]; 10 mg/kg/inj. days 3, 7, 11): 25,9%
- Median weight of the tumor on day 3 (melanoma B16 [3]; 15 mg/kg/inj. days 3, 7, 11): 23,0 mg
- Median weight of the tumor on day 30 (melanoma B16 [3]; 15 mg/kg/inj. days 3, 7, 11): 1 044 mg
- T/C on day 30 (tumor weight) (melanoma B16 [3]; 15 mg/kg/inj. days 3, 7, 11): 13,4%
- Median weight of the tumor on day 3 (melanoma B16 [3]; 20 mg/kg/inj. days 3, 7, 11): 36,0 mg
- Median weight of the tumor on day 30 (melanoma B16 [3]; 20 mg/kg/inj. days 3, 7, 11): 688 mg
- T/C on day 30 (tumor weight) (melanoma B16 [3]; 20 mg/kg/inj. days 3, 7, 11): 8,8%
- LD0 [1]: ≥ 20 mg/kg
- LD50 [1]: ~40 mg/kg
- Number of survivors at D60 (L1210 U.S.A. strain; [6]): 0/10
- T/C (L1210 U.S.A. strain; [6]): 164
- Number of survivors at D60 (L1210 U.S.A. strain; [7]): 5/10
- T/C (L1210 U.S.A. strain; [7]): > 600
- Median wt. of the tumor D20 (colon carcinoma C38 [4]; I.P. Route, 10 mg/kg/inj.): 324
- Median wt. of the tumor D27 (colon carcinoma C38 [4]; I.P. Route, 10 mg/kg/inj.): 1099
- Mice without tumor/total D20 (colon carcinoma C38 [4]; I.P. Route, 10 mg/kg/inj.): 0
- Mice without tumor/total D27 (colon carcinoma C38 [4]; I.P. Route, 10 mg/kg/inj.): 0
- T/C % D20 (colon carcinoma C38 [4]; I.P. Route, 10 mg/kg/inj.): 57%
- T/C % D27 (colon carcinoma C38 [4]; I.P. Route, 10 mg/kg/inj.): 84%
- Median wt. of the tumor D20 (colon carcinoma C38 [4]; I.P. Route, 15 mg/kg/inj.): 88
- Median wt. of the tumor D27 (colon carcinoma C38 [4]; I.P. Route, 15 mg/kg/inj.): 726
- Mice without tumor/total D20 (colon carcinoma C38 [4]; I.P. Route, 15 mg/kg/inj.): 0
- Mice without tumor/total D27 (colon carcinoma C38 [4]; I.P. Route, 15 mg/kg/inj.): 0
- T/C % D20 (colon carcinoma C38 [4]; I.P. Route, 15 mg/kg/inj.): 15%
- T/C % D27 (colon carcinoma C38 [4]; I.P. Route, 15 mg/kg/inj.): 56%
- Median wt. of the tumor D20 (colon carcinoma C38 [4]; I.P. Route, 20 mg/kg/inj.): 13
- Median wt. of the tumor D27 (colon carcinoma C38 [4]; I.P. Route, 20 mg/kg/inj.): 172
- Mice without tumor/total D20 (colon carcinoma C38 [4]; I.P. Route, 20 mg/kg/inj.): 1/8
- Mice without tumor/total D27 (colon carcinoma C38 [4]; I.P. Route, 20 mg/kg/inj.): 2/8
- T/C % D20 (colon carcinoma C38 [4]; I.P. Route, 20 mg/kg/inj.): 2%
- T/C % D27 (colon carcinoma C38 [4]; I.P. Route, 20 mg/kg/inj.): 13%
- Median wt. of the tumor D20 (colon carcinoma C38 [4]; I.V. Route, 10 mg/kg/inj.): 23
- Median wt. of the tumor D27 (colon carcinoma C38 [4]; I.V. Route, 10 mg/kg/inj.): 352
- Mice without tumor/total D20 (colon carcinoma C38 [4]; I.V. Route, 10 mg/kg/inj.): 0/8
- Mice without tumor/total D27 (colon carcinoma C38 [4]; I.V. Route, 10 mg/kg/inj.): 0/8
- T/C % D20 (colon carcinoma C38 [4]; I.V. Route, 10 mg/kg/inj.): 4%
- T/C % D27 (colon carcinoma C38 [4]; I.V. Route, 10 mg/kg/inj.): 27%
- Median wt. of the tumor D20 (colon carcinoma C38 [4]; I.V. Route, 15 mg/kg/inj.): 0
- Median wt. of the tumor D27 (colon carcinoma C38 [4]; I.V. Route, 15 mg/kg/inj.): 0
- Mice without tumor/total D20 (colon carcinoma C38 [4]; I.V. Route, 15 mg/kg/inj.): 7/8
- Mice without tumor/total D27 (colon carcinoma C38 [4]; I.V. Route, 15 mg/kg/inj.): 7/7
- T/C % D20 (colon carcinoma C38 [4]; I.V. Route, 15 mg/kg/inj.): 0%
- T/C % D27 (colon carcinoma C38 [4]; I.V. Route, 15 mg/kg/inj.): 0%
- Median wt. of the tumor D20 (colon carcinoma C38 [4]; I.V. Route, 20 mg/kg/inj.): 0
- Median wt. of the tumor D27 (colon carcinoma C38 [4]; I.V. Route, 20 mg/kg/inj.): 0
- Mice without tumor/total D20 (colon carcinoma C38 [4]; I.V. Route, 20 mg/kg/inj.): 6/8
- Mice without tumor/total D27 (colon carcinoma C38 [4]; I.V. Route, 20 mg/kg/inj.): 6/6
- T/C % D20 (colon carcinoma C38 [4]; I.V. Route, 20 mg/kg/inj.): 0%
- T/C % D27 (colon carcinoma C38 [4]; I.V. Route, 20 mg/kg/inj.): 0%
- Number of survivors at D60 (melanoma B16 [5]): 8/10
- T/C (melanoma B16 [5]): 258
